{"source": "patent US20250213647A1", "about": "“CHEMOKINE RECEPTORS AND ALPHA1 ADRENERGIC RECEPTORS/VASOPRESSIN RECEPTORS 1A HETEROMERS AS DRUG TARGETS FOR DISEASE” (UNIVERSITY OF SOUTH FLORIDA, priority 2022, published 2025)", "key": {"[1]": {"test_system": "CXCR4", "conditions": "previous observations (Gao, 2018); cited from earlier work"}, "[2]": {"test_system": "CR heteromerization partners of α1B/D-ARs (CCR1, CCR2, CXCR4)", "experiment": "Chemotaxis assay, THP-1 cells, CR heteromerization partners of α1B/D-ARs taken together", "format": "cell-based, human", "conditions": "FIG. 17D-17F", "method": "(§1) Cell migration was measured employing the Neuroprobe (Gaithersburg, MD, USA) ChemoTx® Disposable Chemotaxis System. A 96-well Boyden-chamber (30 μL/well, 8 μm pores, 1×10^5 pores/cm^2 pore density) was selected for all chemotaxis experiments. Bottom wells of the Boyden-chamber were loaded with 30 μL of test substances at various concentrations. Top wells of the membrane were loaded with 25 μL of THP-1 cells, THP-1_ADRA1B^KO, wild type THP-1 cells after clonal expansion (=control for THP-1_ADRA1B^KO) or freshly isolated monocytes (200 cells/μL). THP-1 cells were suspended in depleted RPMI1640 (0.5% HyClone™ fetal bovine serum, Sigma); Freshly isolated monocytes were suspended in RPMI1640 (0.5% human platelet poor plasma, Sigma). After 3 hours, transmigrated cells were counted utilizing the Cytation 1 plate reader (BioTek) by direct imaging in high contrast bright field (4×) and post-imaging particle analyses with Gen5 (v3.05) Imaging & Microscopy Software (BioTek). The chemotactic index (CI) was calculated as the ratio of cells that transmigrated in the presence versus the absence of the test solutions."}, "[3]": {"test_system": "CXCR1", "experiment": "Chemotaxis assay, THP-1 cells toward CXCL8 (CXCR1-mediated)", "format": "cell-based, human", "conditions": "CXCL8 10 nM, FIG. 13B", "method": "as §1"}, "[4]": {"test_system": "CCR1", "experiment": "Chemotaxis assay, THP-1 cells toward CCL23 (CCR1-mediated)", "format": "cell-based, human", "conditions": "CCL23 10 nM, mean±SE, read-out: IC50 for inhibition of CCR1-mediated chemotaxis", "method": "as §1"}, "[5]": {"test_system": "CXCR4", "experiment": "Chemotaxis assay, THP-1 cells toward CXCL12 (CXCR4-mediated)", "format": "cell-based, human", "conditions": "CXCL12 100 nM, mean±SE, read-out: IC50 for inhibition of CXCR4-mediated chemotaxis", "method": "as §1"}, "[6]": {"biological_target": "CCR2 (Homo sapiens, UniProt P41597)", "sequence (P41597 whole entry)": "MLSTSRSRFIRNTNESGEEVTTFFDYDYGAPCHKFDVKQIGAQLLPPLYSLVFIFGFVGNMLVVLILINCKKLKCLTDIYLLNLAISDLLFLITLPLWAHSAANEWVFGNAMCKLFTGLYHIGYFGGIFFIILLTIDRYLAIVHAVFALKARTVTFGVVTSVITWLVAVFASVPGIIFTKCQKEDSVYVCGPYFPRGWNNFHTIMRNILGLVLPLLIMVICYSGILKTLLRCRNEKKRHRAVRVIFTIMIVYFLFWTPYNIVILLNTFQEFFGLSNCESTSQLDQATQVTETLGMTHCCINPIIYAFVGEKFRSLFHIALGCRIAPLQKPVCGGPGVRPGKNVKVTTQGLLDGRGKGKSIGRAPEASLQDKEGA", "experiment": "Chemotaxis assay, THP-1 cells toward CCL2 (CCR2-mediated)", "format": "cell-based", "design": "host or cells: THP-1", "conditions": "CCL2 10 nM, mean±SE, read-out: IC50 for inhibition of CCR2-mediated chemotaxis", "method": "as §1"}, "[7]": {"test_system": "AVPR1A heteromerization partners CCR2, CCR8 and CXCR4", "experiment": "Chemotaxis assay, THP-1 cells, AVPR1A heteromerization partners CCR2, CCR8 and CXCR4", "format": "cell-based", "conditions": "Homo sapiens, FIG. 13A, 13C, read-out: IC50, inhibition of chemotaxis mediated via CCR2, CCR8 and CXCR4"}}}
{"smiles": "COc1cc2nc(N3CCN(C(=O)c4ccco4)[C@H]4CCCC[C@H]43)nc(N)c2cc1OC", "note": "(racemic) [cyclazosin]", "values": [{"measurement": "CXCR4-mediated chemotaxis of primary human vascular smooth muscle cells", "setting": "[1]", "value": "inhibit"}]}
{"smiles": "COc1ccccc1N1CCN(CCCNc2c(C)c(=O)n(C)c(=O)n2C)CC1", "note": "[5-Methylurapidil]", "values": [{"measurement": "CR-mediated chemotaxis (CCR1, CCR2 and CXCR4)", "setting": "[2]", "value": "did not affect"}]}
{"smiles": "NC(=O)CC[C@@H]1NC(=O)[C@H](Cc2ccccc2)NC(=O)[C@H](Cc2ccc(O)cc2)NC(=O)[C@@H](N)CSSC[C@@H](C(=O)N2CCC[C@H]2C(=O)N[C@@H](CCCN=C(N)N)C(=O)NCC(N)=O)NC(=O)[C@H](CC(N)=O)NC1=O", "note": "[AVP, arginine vasopressin]", "values": [{"measurement": "chemotaxis mediated by CXCR1", "setting": "[3]", "value": "did not affect"}]}
{"smiles": "COc1ccccc1N1CCN(CCN2C(=O)CC3(CCCC3)CC2=O)CC1", "note": "[BMY7378]", "values": [{"measurement": "IC50", "setting": "[4]", "value": "10.5 ± 0.91", "unit": "nM"}, {"measurement": "IC50", "setting": "[5]", "value": "2.87 ± 0.6", "unit": "nM"}, {"measurement": "IC50", "setting": "[6]", "value": "0.93 ± 0.61", "unit": "nM"}]}
{"smiles": "Cc1nc2c([nH]1)-c1ccccc1N(C(=O)c1ccc(NC(=O)c3ccccc3-c3ccccc3)cc1)CC2", "note": "[Conivaptan]", "values": [{"measurement": "IC50", "setting": "[7]", "value": "0.037 to 0.218", "unit": "nM"}]}
